Converted amounts (≈) assume the structure as drawn.
Legend:
THP-1 = assay: Inhibition of LPS-stimulated TNFalpha production in THP1 cells; format: functional, cell-based; details: Homo sapiens
[1] = Aqueous solubility at pH 7.4; format: physicochemical
[2] = molecular target: Mitogen-activated protein kinase 9 (Homo sapiens, UniProt P45984); assay: Inhibition of Jnk2alpha2
Mitogen-activated protein kinase 9, sequence (P45984 whole entry): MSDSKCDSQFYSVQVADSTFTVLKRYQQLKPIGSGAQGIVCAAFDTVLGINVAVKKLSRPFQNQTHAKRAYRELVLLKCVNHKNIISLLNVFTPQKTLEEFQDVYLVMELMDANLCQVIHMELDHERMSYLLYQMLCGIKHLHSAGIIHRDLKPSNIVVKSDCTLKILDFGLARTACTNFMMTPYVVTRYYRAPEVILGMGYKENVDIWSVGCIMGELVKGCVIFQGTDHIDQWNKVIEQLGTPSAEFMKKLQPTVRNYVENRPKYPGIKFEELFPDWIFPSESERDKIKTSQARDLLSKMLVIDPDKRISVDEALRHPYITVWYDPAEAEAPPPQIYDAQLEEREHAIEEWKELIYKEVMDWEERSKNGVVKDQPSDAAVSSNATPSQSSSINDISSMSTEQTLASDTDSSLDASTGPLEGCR

Compound | EC50 (THP-1) [nM] | solubility [1] [µM] | IC50 [2] [nM]
O=c1[nH]c2cc(Nc3ccccc3F)ccc2n1CC1CCCCC1 | 66 |  | 
Cn1c(=O)[nH]c2cc(C(=O)c3ccccc3)ccc21 | > 5000 |  | 
O=c1[nH]c2cc(Nc3ccc(F)cc3)ccc2n1CC1CCCCC1 | 74 |  | 
O=c1[nH]c2cc(Nc3cc(Cl)cc(Cl)c3)ccc2n1CC1CCCCC1 | > 10000 |  | 
CC(C)(C)n1c(=O)[nH]c2cc(Nc3ccccc3)ccc21 | 74 |  | 
O=c1[nH]c2cc(Oc3ccccc3)ccc2n1CC1CCCCC1 | 250 |  | 
O=c1[nH]c2cc(Nc3ccccc3)ccc2n1Cc1c(F)cccc1F | 220 |  | 
O=c1[nH]c2cc(Nc3ccccc3)ccc2n1Cc1ccccc1 | 320 |  | 
CN1CCN(c2cc3c(cc2Nc2ccccc2)[nH]c(=O)n3CC2CCCCC2)CC1 | 150 | 5.7 (≈ 2.39 µg/mL) | 
O=c1[nH]c2cc(Nc3ccccc3)ccc2n1C1CCNC1 (configuration not stated) | 1100 |  | 
Cc1ccccc1Nc1ccc2c(c1)[nH]c(=O)n2CC1CCCCC1 | 64 |  | 
O=c1[nH]c2cc(Nc3ccc(F)c(F)c3)ccc2n1CC1CCCCC1 | 420 |  | 
N=C(N)c1ccc(Cn2c(=O)[nH]c3cc(C(=O)c4ccccc4)ccc32)cc1 | > 10000 |  | 
Cc1ccccc1Nc1cc2[nH]c(=O)n(CC3CCCCC3)c2cc1N1CCN(C)CC1 | 180 |  | 
O=C(c1ccccc1)c1ccc2[nH]c(=O)[nH]c2c1 | > 5000 |  | 
O=c1[nH]c2cc(Nc3cccc(C(F)(F)F)c3)ccc2n1CC1CCCCC1 | 2300 |  | 
O=c1[nH]c2cc(Nc3cccc(F)c3)ccc2n1CC1CCCCC1 | 190 |  | 
O=c1[nH]c2cc(Nc3ccccc3)ccc2n1CC1CCCCC1 | 270 | 0.2 (≈ 0.0643 µg/mL) | 
O=C(c1ccccc1)c1ccc2c(c1)[nH]c(=O)n2Cc1ccccc1 | 1000 |  | 
O=c1[nH]c2cc(Nc3ccccc3)ccc2n1C1CCCC1 | 150 |  | 
O=C(c1ccccc1)c1ccc2c(c1)[nH]c(=O)n2CC1CCCCC1 | 880 |  | 
O=c1[nH]c2cc(Nc3ccc(F)cc3F)ccc2n1CC1CCCCC1 | 46 |  | 5500
CC(C)(CN)n1c(=O)[nH]c2cc(Nc3ccccc3)ccc21 | 3400 |  | 
O=c1[nH]c2cc(Nc3ccccc3)c(N3CCNCC3)cc2n1CC1CCCCC1 | 150 |  | 
